The source of these data is patent publication US5834453A, “Methods for the manufacture and use of antimicrobial sterol conjugates” (Lehigh University, priority 1997, dated 1998).

In brackets after ≈: the same amount, converted by molar mass. Entries after “also recorded” stand apart in the source; their conditions may differ. Read-outs that look alike come from different tables or passages of the source.

Broadly, the MIC is the lowest concentration found to suppress growth.

Data set [1] deals with various groups of microorganisms. The experiment in a line: Antimicrobial activity (MIC), all microorganisms tested. Type of data set: cell-based. The procedure: (§1) The antimicrobial activity of the compounds according to the present invention were compared with the results obtained for squalamine as reported in Proc. Nat. Acad. Sci. USA 90:1354 (1993), supra, the disclosure of which is incorporated in toto herein. The data reported in the following table is the minimum inhibitory concentration (MIC) required for complete inhibition of microbial growth. The MIC was determined utilizing known micro-broth dilution methods in which inocula of 10^6 /ml of the test organism were incubated in 0.5× trypticase soy broth at 35° C. for 24 hours. MIC's were also tested under various pH conditions, with calcium chloride or magnesium chloride, or with immobilized horse serum.
(§2) The numbers in parentheses contained in the table correspond to accession numbers with the American Type Culture Collection (reference strains were either obtained from the American Type Culture Collection or from the Microbiology Laboratory at Memorial Sloan-Kettering Cancer Center; Bacterial strains were maintained on Columbia 5% sheep blood agar plates, and fungi were maintained on Sabouraud Dextrose agar plates).

Data set [2] is described as follows: Hemolytic activity, minimal hemolytic concentration (MHC).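 As to MCC: MCC here is the minimal hemolytic concentration (MHC).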 Type of data set: cell-based, sheep. The note with it: sheep, red blood cells. The procedure: (§3) Hemolytic activity of the squalamine mimics according to the present invention were also studied by incubating sheep red blood cells for 24 hours at 37° C. in saline (final concentration of 0.5%) with or without respective concentrations of the squalamine mimics. The minimal hemolytic concentration (MHC) was determined as the lowest concentration of a mimic that raised visible hemolysis.

Data set [3] deals with P. aeruginosa (10145). Kind of data set: MIC, micro-broth dilution. Type of data set: cell-based. The note with it: Pseudomonas aeruginosa, 35° C., 24 hours, read-out: ANTIMICROBIAL ACTIVITY (MIC). The procedure:
as §1, §2
(Broth dilution looks for growth in wells or tubes with falling amounts of substance.)

In data set [4] the test system is C. neoformans (M68979). Kind of data set: MIC, micro-broth dilution. Type of data set: cell-based. The note with it: Cryptococcus neoformans, 24 h, read-out: ANTIMICROBIAL ACTIVITY (MIC). Here is the method:
as §1, §2

For data set [5], the system named is S. pneumoniae (6305). The experiment in a line: MIC, micro-broth dilution. It counts as cell-based. The note with it: Streptococcus pneumoniae, 35° C., 24 hours, read-out: ANTIMICROBIAL ACTIVITY (MIC). The procedure: as §1, §2
Data set [6] relates to S. aureus (25923). The experiment in a line: MIC, micro-broth dilution. The settings on record: Staphylococcus aureus, 35° C., 24 hours, read-out: ANTIMICROBIAL ACTIVITY (MIC). Type of data set: cell-based. Here is the method: as §1, §2
For data set [7], the system named is S. agalactiae (13813). The experiment in a line: MIC, micro-broth dilution. It counts as cell-based. The note with it: Streptococcus agalactiae, 35° C., 24 hours, read-out: ANTIMICROBIAL ACTIVITY (MIC). Here is the method:
as §1, §2

The subject of data set [8] is E. faecalis (29212). The experiment in a line: MIC, micro-broth dilution. Type of data set: cell-based. The settings on record: Enterococcus faecalis, 35° C., 24 hours, read-out: ANTIMICROBIAL ACTIVITY (MIC). Here is the method: as §1, §2
Data set [9] deals with S. aureus (29213). The experiment in a line: MIC, micro-broth dilution. The settings on record: Staphylococcus aureus, 24 h, read-out: ANTIMICROBIAL ACTIVITY (MIC). It counts as cell-based. Here is the method:
as §1, §2

Data set [10] relates to P. aeruginosa (2853). The experiment in a line: MIC, micro-broth dilution. It counts as cell-based. The note with it: Pseudomonas aeruginosa, 24 h, read-out: ANTIMICROBIAL ACTIVITY (MIC). Here is the method:
as §1, §2

Data set [11] relates to C. neoformans (90012). Kind of data set: MIC, micro-broth dilution. Type of data set: cell-based. The settings on record: Cryptococcus neoformans, 24 h, read-out: ANTIMICROBIAL ACTIVITY (MIC). Here is the method:
as §1, §2

For data set [12], the system named is S. epidermidis (12228). Kind of data set: MIC, micro-broth dilution. Type of data set: cell-based. The settings on record: Staphylococcus epidermidis, 35° C., 24 hours, read-out: ANTIMICROBIAL ACTIVITY (MIC). The procedure:
as §1, §2

The subject of data set [13] is S. aureus (H20809). Kind of data set: MIC, micro-broth dilution. Type of data set: cell-based. The settings on record: Staphylococcus aureus, 24 h, read-out: ANTIMICROBIAL ACTIVITY (MIC). The procedure:
as §1, §2

The test system of data set [14] is A. fumigatus (H29709). Kind of data set: MIC, micro-broth dilution. It counts as cell-based. The note with it: Aspergillus fumigatus, 35° C., 24 hours, read-out: ANTIMICROBIAL ACTIVITY (MIC). Here is the method:
as §1, §2

For data set [15], the system named is K. pneumoniae (13883). Kind of data set: MIC, micro-broth dilution. Type of data set: cell-based. The settings on record: Klebsiella pneumoniae, read-out: ANTIMICROBIAL ACTIVITY (MIC). Here is the method:
as §1, §2

Data set [16] has as its system S. marcescens (13880). The experiment in a line: MIC, micro-broth dilution. It counts as cell-based. The settings on record: for MIC: Serratia marcescens, 24 h, read-out: ANTIMICROBIAL ACTIVITY (MIC). Here is the method: as §1, §2
Data set [17] has as its system E. cloacae (13047). The experiment in a line: MIC, micro-broth dilution. The settings on record: Enterobacter cloacae, 35° C., 24 hours, read-out: ANTIMICROBIAL ACTIVITY (MIC). It counts as cell-based. Here is the method:
as §1, §2

Data set [18] has as its system P. vulgaris (13315). Kind of data set: MIC, micro-broth dilution. Type of data set: cell-based. The settings on record: Proteus vulgaris, 35° C., 24 hours, read-out: ANTIMICROBIAL ACTIVITY (MIC). Here is the method:
as §1, §2

Data set [19] has as its system E. coli (25922). The experiment in a line: MIC, micro-broth dilution. It counts as cell-based. The settings on record: Escherichia coli, 35° C., 24 hours, read-out: ANTIMICROBIAL ACTIVITY (MIC). Here is the method:
as §1, §2

The test system of data set [20] is A. fumigatus (H1120). Kind of data set: MIC, micro-broth dilution. Type of data set: cell-based. The note with it: Aspergillus fumigatus, 35° C., 24 hours, read-out: ANTIMICROBIAL ACTIVITY (MIC). The procedure: as §1, §2
In data set [21] the test system is E. faecium (T6480-9). Kind of data set: MIC, micro-broth dilution. Type of data set: cell-based. The settings on record: Enterococcus faecium, 35° C., 24 hours, read-out: ANTIMICROBIAL ACTIVITY (MIC). Here is the method:
as §1, §2

The subject of data set [22] is S. pyrogenes (19615). The experiment in a line: MIC, micro-broth dilution. Type of data set: cell-based. The settings on record: 24 h, read-out: ANTIMICROBIAL ACTIVITY (MIC). The procedure: as §1, §2
Data set [23] has as its system C. albicans (90028). The experiment in a line: MIC, micro-broth dilution. Type of data set: cell-based. The note with it: Candida albicans, 35° C., 24 hours, read-out: ANTIMICROBIAL ACTIVITY (MIC). The procedure:
as §1, §2

The subject of data set [24] is sheep red blood cells. The experiment in a line: Hemolytic activity, minimal hemolytic concentration (MHC).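 As to MCC: MCC here is the minimal hemolytic concentration (MHC).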 It counts as cell-based. The procedure:
as §3

`C[C@H](CCC(=O)NCCCNCCCCNCCCN)[C@H]1CC[C@H]2[C@@H]3CC[C@@H]4CCCC[C@]4(C)[C@H]3CC[C@]12C` [SM-19]: the “antimicrobial activity (in words)” value in [1] is “highly active”. The MCC at 24 h in [2] was found to be 6.25 µg/mL. The MIC in [3] was above 100 µg/mL; in data set [4], 0.78 µg/mL (≈ 1.43 µM); in data set [5] it was 0.78 µg/mL (≈ 1.43 µM); in data set [6] it was 3.13 µg/mL (≈ 5.74 µM); in data set [7], 3.13 µg/mL (≈ 5.74 µM); in data set [8], 6.25 µg/mL (≈ 11.5 µM). For the same molecule, the MIC in data set [9] amounted to 3.13 µg/mL (≈ 5.74 µM); in data set [10], 12.5 µg/mL (≈ 22.9 µM); in data set [11], 0.78 µg/mL (≈ 1.43 µM); in data set [12], 1.56 µg/mL (≈ 2.86 µM); in [13] it was 3.13 µg/mL (≈ 5.74 µM); in data set [14], 3.13 µg/mL (≈ 5.74 µM). Further, the minimal inhibitory concentration (MIC) in data set [15] (24 h) is 6.25 µg/mL (≈ 11.5 µM); in data set [16], above 100 µg/mL; in [17], above 100 µg/mL; in [18], above 100 µg/mL; in data set [19], 3.13 µg/mL (≈ 5.74 µM); in data set [20], 3.13 µg/mL (≈ 5.74 µM). The MIC in [21], in data set [22] and in data set [23] was 3.13 µg/mL (≈ 5.74 µM) throughout.
For the molecule `C[C@H](CCC(=O)NCCCNCCCCNCCCN)[C@H]1CC[C@H]2[C@@H]3C[C@H](O)[C@@H]4C[C@H](O)CC[C@]4(C)[C@H]3CC[C@]12C` [SM-28], the “antimicrobial activity (in words)” value in data set [1] is recorded as “lesser activity”. In data set [2], the MCC at 24 h was above 100 µg/mL. Moreover, the MIC in [3] worked out at 25 µg/mL (≈ 43.3 µM); in data set [4] it was 3.13 µg/mL (≈ 5.43 µM); in data set [5], 50 µg/mL (≈ 86.7 µM); in data set [6] it was 6.25 µg/mL (≈ 10.8 µM); in data set [7], 12.5 µg/mL (≈ 21.7 µM); in [8] it was 50 µg/mL (≈ 86.7 µM). In addition, the minimum inhibitory concentration (MIC) in data set [9] was determined as 6.25 µg/mL (≈ 10.8 µM); in [10], 25 µg/mL (≈ 43.3 µM); in [11], 3.13 µg/mL (≈ 5.43 µM); in [12] it was 3.13 µg/mL (≈ 5.43 µM); in [13] it was 6.25 µg/mL (≈ 10.8 µM); in data set [14], 25 µg/mL (≈ 43.3 µM). Further, the MIC in data set [15] (24 h) was above 100 µg/mL; in data set [16] it was above 100 µg/mL; in [17], above 100 µg/mL; in [18] it was 50 µg/mL (≈ 86.7 µM); in [19], 50 µg/mL (≈ 86.7 µM); in data set [20], 25 µg/mL (≈ 43.3 µM). Besides, the results for the MIC in data set [21], in data set [22] and in data set [23] were 50 µg/mL (≈ 86.7 µM), 1.56 µg/mL (≈ 2.7 µM) and 6.25 µg/mL (≈ 10.8 µM), respectively.
Consider `C[C@H](CCC(=O)NCCCNCCCCNCCCN)[C@H]1CC[C@H]2[C@@H]3[C@H](O)C[C@@H]4C[C@H](O)CC[C@]4(C)[C@H]3CC[C@]12C` [SM-34], for which the “antimicrobial activity (in words)” value in data set [1] is “highly active”. In data set [2], this molecule gave an MCC at 24 h of 25 µg/mL. For the same molecule, the “hemolytic activity (in words)” value in data set [24] was “unwanted hemolytic activity”. In addition, the minimum inhibitory concentration (MIC) in data set [3] was 25 µg/mL (≈ 43.3 µM); in [4] it was 3.13 µg/mL (≈ 5.43 µM); in [5], 3.13 µg/mL (≈ 5.43 µM); in data set [6] it was 0.78 µg/mL (≈ 1.35 µM); in data set [7] it was 1.56 µg/mL (≈ 2.7 µM); in data set [8], 3.13 µg/mL (≈ 5.43 µM). Besides, the MIC in data set [9] was determined as 1.56 µg/mL (≈ 2.7 µM); in [10] it was 12.5 µg/mL (≈ 21.7 µM); in data set [11] it was 0.78 µg/mL (≈ 1.35 µM); in [12] it was 0.78 µg/mL (≈ 1.35 µM); in data set [13], 1.56 µg/mL (≈ 2.7 µM); in [14], 12.5 µg/mL (≈ 21.7 µM). For the same molecule, the MIC in data set [15] (K. pneumoniae (13883), 35° C., 24 hours) worked out at 8.25 µg/mL (≈ 14.3 µM); in data set [16], 12.5 µg/mL (≈ 21.7 µM); in data set [17], 12.5 µg/mL (≈ 21.7 µM); in [18], 12.5 µg/mL (≈ 21.7 µM); in data set [19], 3.13 µg/mL (≈ 5.43 µM); in data set [20], 12.5 µg/mL (≈ 21.7 µM). Besides, the results for the MIC in data set [21], in data set [22] and in data set [23] were 6.25 µg/mL (≈ 10.8 µM), 0.78 µg/mL (≈ 1.35 µM) and 3.13 µg/mL (≈ 5.43 µM), respectively. In addition, the “activity against S. marcescens” value in data set [16] (in words) is “found even against S. marcescens; also recorded: effective against S. marcescens”.
